Reference: patent US10195196B2, “1,4-disubstituted pyridazine analogs there of and methods for treating SMN-deficiency-related conditions” (NOVARTIS AG, priority 2012, dated 2019)

Test system: SMN protein
Assay: cellular SMN ELISA (SMN protein elevation)
Assay type: cell-based
Conditions: ELISA condition 2: compound concentration 100 pM-10 uM, myoblast cell line from SMNdelta7 mouse model, 24 hours treatment; for SMN activity Fold: fold activation over DMSO control
In short: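 SMNdelta7 mouse-derived myoblasts were treated with compound for 24 h, then lysed. SMN protein was quantified by sandwich ELISA (HRP/TMB, 450 nm) and reported as fold over DMSO and EC50, over 20 nM–10 μM or 100 pM–10 μM depending on condition.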

C[C@H](O)[C@@H]1CC(Oc2ccc(-c3ccc(-n4cccn4)cc3O)nn2)CC(C)(C)N1 (stereo partly shown) [Example 23-1]
EC50: 3650 nM | SMN activity Fold: 2.32 Fold

CN(c1ccc(-c2cc3ccc(C#N)cc3cc2O)nn1)C1CC(C)(C)NC(C)(C)C1 [Example 24-1, 7-hydroxy-6-(6-(methyl(2,2,6,6-tetramethylpiperidin-4-yl)amino)pyridazin-3-yl)-2-naphthonitrile]
EC50: 16 nM | SMN activity Fold: 3.14 Fold

CN(c1ccc(-c2cc3ccc(CN4CCCCC4)cc3cc2O)nn1)C1CC(C)(C)NC(C)(C)C1 [Example 24-2, 3-(6-(methyl(2,2,6,6-tetramethylpiperidin-4-yl)amino)pyridazin-3-yl)-7-(piperidin-1-ylmethyl)naphthalen-2-ol]
EC50: 157 nM | SMN activity Fold: 2.33 Fold

CN(c1ccc(-c2cc3ccc(CN4CCCC4)cc3cc2O)nn1)C1CC(C)(C)NC(C)(C)C1 [Example 24-3, 3-(6-(methyl(2,2,6,6-tetramethylpiperidin-4-yl)amino)pyridazin-3-yl)-7-(pyrrolidin-1-ylmethyl)naphthalen-2-ol]
EC50: 120 nM | SMN activity Fold: 2.75 Fold

CN(c1ccc(-c2cc3ccc(O)c(Br)c3cc2O)nn1)C1CC(C)(C)NC(C)(C)C1 [Example 24-4, 1-bromo-6-(6-(methyl(2,2,6,6-tetramethylpiperidin-4-yl)amino)pyridazin-3-yl)naphthalene-2,7-diol]
EC50: 16 nM | SMN activity Fold: 3.06 Fold

CN(c1ccc(-c2cc3ccc(O)c(Cl)c3cc2O)nn1)C1CC(C)(C)NC(C)(C)C1 [Example 24-5, 1-chloro-6-(6-(methyl(2,2,6,6-tetramethylpiperidin-4-yl)amino)pyridazin-3-yl)naphthalene-2,7-diol]
EC50: 47 nM | SMN activity Fold: 2.99 Fold

COc1ccc2cc(-c3ccc(N(C)C4CC(C)(C)NC(C)(C)C4)nn3)c(O)cc2c1 [Example 24-6, 7-methoxy-3-(6-(methyl(2,2,6,6-tetramethylpiperidin-4-yl)amino)pyridazin-3-yl)naphthalen-2-ol]
EC50: 6 nM | SMN activity Fold: 2.39 Fold

COc1ccc2cc(-c3ccc(N(C)C4CC(C)(C)N(C)C(C)(C)C4)nn3)c(O)cc2c1 [Example 24-7, 7-methoxy-3-(6-(methyl(1,2,2,6,6-pentamethylpiperidin-4-yl)amino)pyridazin-3-yl)naphthalen-2-ol]
EC50: 31 nM | SMN activity Fold: 2.57 Fold

CN(c1ccc(-c2cc3ccc(C4=CCOCC4)cc3cc2O)nn1)C1CC(C)(C)NC(C)(C)C1 [Example 24-8, 7-(3,6-dihydro-2H-pyran-4-yl)-3-(6-(methyl(2,2,6,6-tetramethylpiperidin-4-yl)amino)pyridazin-3-yl)naphthalen-2-ol]
EC50: 7 nM | SMN activity Fold: 2.39 Fold

CN(c1ccc(-c2cc3ccc(C4CCOCC4)cc3cc2O)nn1)C1CC(C)(C)NC(C)(C)C1 [Example 24-9, 3-(6-(methyl(2,2,6,6-tetramethylpiperidin-4-yl)amino)pyridazin-3-yl)-7-(tetrahydro-2H-pyran-4-yl)naphthalen-2-ol]
EC50: 338 nM | SMN activity Fold: 2.65 Fold

CN(c1ccc(-c2cc3ccc(C(F)F)cc3cc2O)nn1)C1CC(C)(C)NC(C)(C)C1 [Example 24-10, 7-(difluoromethyl)-3-(6-(methyl(2,2,6,6-tetramethylpiperidin-4-yl)amino)pyridazin-3-yl)naphthalen-2-ol]
EC50: 113 nM | SMN activity Fold: 3.14 Fold

CN(c1ccc(-c2cc3ccc(OC(C)(C)CCO)cc3cc2O)nn1)C1CC(C)(C)NC(C)(C)C1 [Example 24-11, 7-((4-hydroxy-2-methylbutan-2-yl)oxy)-3-(6-(methyl(2,2,6,6-tetramethylpiperidin-4-yl)amino)pyridazin-3-yl)naphthalen-2-ol]
EC50: 133 nM | SMN activity Fold: 2.54 Fold

CN(c1ccc(-c2cc3ccc(OCCC(C)(C)O)cc3cc2O)nn1)C1CC(C)(C)NC(C)(C)C1 [Example 24-12, 7-(3-hydroxy-3-methylbutoxy)-3-(6-(methyl(2,2,6,6-tetramethylpiperidin-4-yl)amino)pyridazin-3-yl)naphthalen-2-ol]
EC50: 70 nM | SMN activity Fold: 2.80 Fold

CN(c1ccc(-c2c(O)cc(-c3cn[nH]c3)cc2O)nn1)C1CC(C)(C)NC(C)(C)C1 [Example 25-1, 2-(6-(methyl(2,2,6,6-tetramethylpiperidin-4-yl)amino)pyridazin-3-yl)-5-(1H-pyrazol-4-yl)benzene-1,3-diol]
EC50: 84 nM | SMN activity Fold: 2.58 Fold

COc1cc(-c2cn[nH]c2)cc(O)c1-c1ccc(N(C)C2CC(C)(C)NC(C)(C)C2)nn1 [Example 25-2, 3-methoxy-2-(6-(methyl(2,2,6,6-tetramethylpiperidin-4-yl)amino)pyridazin-3-yl)-5-(1H-pyrazol-4-yl)phenol]
EC50: 8 nM | SMN activity Fold: 3.44 Fold

CC1(C)CC(Nc2ccc(-c3c(O)cc(-c4cn[nH]c4)cc3OC(F)(F)F)nn2)CC(C)(C)N1 [Example 25-3, 5-(1H-pyrazol-4-yl)-2-(6-((2,2,6,6-tetramethylpiperidin-4-yl)amino)pyridazin-3-yl)-3-(trifluoromethoxy)phenol]
EC50: 119 nM | SMN activity Fold: 2.39 Fold

CN(c1ccc(-c2c(O)cc(-c3cnn(C)c3)cc2OC(F)(F)F)nn1)C1CC(C)(C)NC(C)(C)C1 [Example 25-4, 2-(6-(methyl(2,2,6,6-tetramethylpiperidin-4-yl)amino)pyridazin-3-yl)-5-(1-methyl-1H-pyrazol-4-yl)-3-(trifluoromethoxy)phenol]
EC50: 199 nM | SMN activity Fold: 2.30 Fold

CN(c1ccc(-c2c(O)cc(-c3cn[nH]c3)cc2OC(F)(F)F)nn1)C1CC(C)(C)NC(C)(C)C1 [Example 25-5, 2-(6-(methyl(2,2,6,6-tetramethylpiperidin-4-yl)amino)pyridazin-3-yl)-5-(1H-pyrazol-4-yl)-3-(trifluoromethoxy)phenol]
EC50: 96 nM | SMN activity Fold: 2.36 Fold

CN(c1ccc(-c2c(O)cc(-c3ccn(C)c(=O)c3)cc2OC(F)(F)F)nn1)C1CC(C)(C)NC(C)(C)C1 [Example 25-6, 4-(3-hydroxy-4-(6-(methyl(2,2,6,6-tetramethylpiperidin-4-yl)amino)pyridazin-3-yl)-5-(trifluoromethoxy)phenyl)-1-methylpyridin-2(1H)-one]
EC50: 107 nM | SMN activity Fold: 2.16 Fold

COc1cc(-c2cnn(C)c2)cc(O)c1-c1ccc(N(C)C2CC(C)(C)NC(C)(C)C2)nn1 [Example 26-1, 3-methoxy-2-(6-(methyl(2,2,6,6-tetramethylpiperidin-4-yl)amino)pyridazin-3-yl)-5-(1-methyl-1H-pyrazol-4-yl)phenol]
EC50: 14 nM | SMN activity Fold: 3.18 Fold

COc1cc(-c2cnc3n2CCCC3)cc(O)c1-c1ccc(N(C)C2CC(C)(C)NC(C)(C)C2)nn1 [Example 26-2, 3-methoxy-2-(6-(methyl(2,2,6,6-tetramethylpiperidin-4-yl)amino)pyridazin-3-yl)-5-(5,6,7,8-tetrahydroimidazo[1,2-a]pyridin-3-yl)phenol]
EC50: 97 nM | SMN activity Fold: 2.61 Fold

COc1cc(-c2cccnc2)cc(O)c1-c1ccc(N(C)C2CC(C)(C)NC(C)(C)C2)nn1 [Example 26-3, 3-methoxy-2-(6-(methyl(2,2,6,6-tetramethylpiperidin-4-yl)amino)pyridazin-3-yl)-5-(pyridin-3-yl)phenol]
EC50: 47 nM | SMN activity Fold: 2.70 Fold

COc1cc(-c2cnn(C3CCCC3)c2)cc(O)c1-c1ccc(N(C)C2CC(C)(C)NC(C)(C)C2)nn1 [Example 26-4, 5-(1-cyclopentyl-1H-pyrazol-4-yl)-3-methoxy-2-(6-(methyl(2,2,6,6-tetramethylpiperidin-4-yl)amino)pyridazin-3-yl)phenol]
EC50: 649 nM | SMN activity Fold: 2.22 Fold

COc1cccc(-c2cc(O)c(-c3ccc(N(C)C4CC(C)(C)NC(C)(C)C4)nn3)c(OC)c2)c1 [Example 26-5, 3′,5-Dimethoxy-4-(6-(methyl(2,2,6,6-tetramethylpiperidin-4-yl)amino)pyridazin-3-yl)-[1,1′-biphenyl]-3-ol]
EC50: 313 nM | SMN activity Fold: 2.14 Fold

Cc1cnc(-c2cc(O)c(-c3ccc(N(C)C4CC(C)(C)NC(C)(C)C4)nn3)c(OCc3ccccc3)c2)o1 [Example 27-1, 3-(benzyloxy)-2-(6-(methyl(2,2,6,6-tetramethylpiperidin-4-yl)amino)pyridazin-3-yl)-5-(5-methyloxazol-2-yl)phenol]
EC50: 305 nM | SMN activity Fold: 2.35 Fold

CCOc1cc(-c2ncc(C)o2)cc(O)c1-c1ccc(N(C)C2CC(C)(C)NC(C)(C)C2)nn1 [Example 27-2, 3-ethoxy-2-(6-(methyl(2,2,6,6-tetramethylpiperidin-4-yl)amino)pyridazin-3-yl)-5-(5-methyloxazol-2-yl)phenol]
EC50: 165 nM | SMN activity Fold: 2.83 Fold

Cc1cnc(-c2cc(O)c(-c3ccc(N(C)C4CC(C)(C)NC(C)(C)C4)nn3)c(OCC3CC3)c2)o1 [Example 27-3, 3-(cyclopropylmethoxy)-2-(6-(methyl(2,2,6,6-tetramethylpiperidin-4-yl)amino)-pyridazin-3-yl)-5-(5-methyloxazol-2-yl)phenol]
EC50: 619 nM | SMN activity Fold: 2.75 Fold

Cc1nc2cc(-c3ccc(N(C)C4CC(C)(C)NC(C)(C)C4)nn3)c(O)cc2[nH]1 [Example 28-1, 2-methyl-5-(6-(methyl(2,2,6,6-tetramethylpiperidin-4-yl)amino)pyridazin-3-yl)-1H-benzo[d]imidazol-6-ol]
EC50: 475 nM | SMN activity Fold: 3.41 Fold

CN(c1ccc(-c2ccc(Cl)cc2O)nn1)C1CC(C)(C)NC(C)(C)C1 [Example 29-1, 5-chloro-2-(6-(methyl(2,2,6,6-tetramethylpiperidin-4-yl)amino)pyridazin-3-yl)phenol]
EC50: 113 nM | SMN activity Fold: 2.49 Fold
